From patent US10266526B2, “Substituted 1,2,3-triazoles as SMYD inhibitors for treating cancer” (EPIZYME, INC., priority 2014, dated 2019)

biological target: SMYD3 (Homo sapiens (Human), UniProt Q9H7B4); experiment: SMYD3 biochemical assay (SMYD3 enzyme assay on MEKK2 protein substrate, 3H-SAM scintillation proximity assay); conditions: Table 1A; average of n = 1 to n = 50; read-out: SMYD3 Biochem IC50
Procedure, shortened: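 Native full-length human SMYD3, expressed in E. coli, was preincubated with compound for 30 min at room temperature in 25 mM Tris-Cl pH 8.0, 1 mM TCEP, 0.005% BSG and 0.005% Tween 20. ³H-SAM plus GST-MEKK2 then started the reaction. It was stopped with unlabeled SAM (100 uM final), and methylated MEKK2 was read by SPA.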

Chain of SMYD3 (Q9H7B4 whole entry): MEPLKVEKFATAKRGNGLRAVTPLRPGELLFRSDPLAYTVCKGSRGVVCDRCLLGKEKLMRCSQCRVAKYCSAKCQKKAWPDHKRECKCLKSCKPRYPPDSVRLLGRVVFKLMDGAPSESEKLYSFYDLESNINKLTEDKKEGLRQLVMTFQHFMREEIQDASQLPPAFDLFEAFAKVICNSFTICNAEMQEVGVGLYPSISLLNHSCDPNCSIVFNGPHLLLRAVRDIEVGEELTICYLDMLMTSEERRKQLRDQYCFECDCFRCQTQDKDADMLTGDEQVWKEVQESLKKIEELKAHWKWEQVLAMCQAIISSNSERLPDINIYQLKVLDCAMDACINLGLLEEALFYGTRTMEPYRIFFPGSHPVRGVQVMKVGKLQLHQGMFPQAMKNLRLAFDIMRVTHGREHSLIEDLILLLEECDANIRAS

| IC50 [µM] | Compound |
| --- | --- |
| > 50 | Cc1nnc(C(=O)N[C@H]2CC[C@H](NC(=O)CCN)CC2)[nH]1 [compound 543, N-((1r,4r)-4-(3-aminopropanamido)cyclohexyl)-5-methyl-4H-1,2,4-triazole-3-carboxamide] |

same assay, conditions: read-out: SMYD3 Biochem IC50

| IC50 [µM] | Compound |
| --- | --- |
| > 100 | N[C@H]1CC[C@H](NC(=O)c2nc3ccccc3s2)CC1 [compound 367, N-((1r,4r)-4-aminocyclohexyl)benzo[d]thiazole-2-carboxamide] |
| > 100 | N[C@H]1CC[C@H](NC(=O)c2ccc(-n3cnnc3)cc2)CC1 [compound 278, N-((1r,4r)-4-aminocyclohexyl)-4-(4H-1,2,4-triazol-4-yl)benzamide] |
| > 100 | N[C@H]1CC[C@H](NC(=O)c2ccc(O)nc2)CC1 [compound 295, N-((1r,4r)-4-aminocyclohexyl)-6-hydroxynicotinamide] |
| > 100 | CC(NC(=O)c1cccc2c1CC(=O)N2)C1CCN(C(=O)[C@H](C)N)CC1 (stereo partly drawn) [compound 399, N-(1-(1-(L-alanyl)piperidin-4-yl)ethyl)-2-oxoindoline-4-carboxamide] |
| 22.1 | CC(NC(=O)c1cc2ccccc2nc1O)C1CCN(C(=O)[C@H](C)N)CC1 (stereo partly drawn) [compound 474, N-(1-(1-(L-alanyl)piperidin-4-yl)ethyl)-2-hydroxyquinoline-3-carboxamide] |
| > 100 | CC(NC(=O)c1cc(O)nc2ccccc12)C1CCN(C(=O)[C@H](C)N)CC1 (stereo partly drawn) [compound 199, N-(1-(1-(L-alanyl)piperidin-4-yl)ethyl)-2-hydroxyquinoline-4-carboxamide] |
| > 100 | N[C@H]1CC[C@H](NC(=O)Cn2ccnc2)CC1 [compound 426, N-((1r,4r)-4-aminocyclohexyl)-2-(1H-imidazol-1-yl)acetamide] |
| > 100 | CC1=NN(c2ccc(C(=O)N[C@H]3CC[C@H](N)CC3)cc2)C(=O)C1 [compound 403, N-((1r,4r)-4-aminocyclohexyl)-4-(3-methyl-5-oxo-4,5-dihydro-1H-pyrazol-1-yl)benzamide] |
| > 100 | N[C@H]1CC[C@H](NC(=O)c2ncccn2)CC1 [compound 269, N-((1r,4r)-4-aminocyclohexyl)pyrimidine-2-carboxamide] |
| > 50 | NCCC(=O)N[C@H]1CC[C@H](NC(=O)c2cncc(O)c2)CC1 [compound 514, N-((1r,4r)-4-(3-aminopropanamido)cyclohexyl)-5-hydroxynicotinamide] |
| > 100 | CC(NC(=O)c1cn2ccsc2n1)C1CCN(C(=O)[C@H](C)N)CC1 (stereo partly drawn) [compound 239, N-(1-(1-(L-alanyl)piperidin-4-yl)ethyl)imidazo[2,1-b]thiazole-6-carboxamide] |
| > 100 | N[C@H]1CC[C@H](NC(=O)c2cccc3c2OC(F)(F)O3)CC1 [compound 307, N-((1r,4r)-4-aminocyclohexyl)-2,2-difluorobenzo[d][1,3]dioxole-4-carboxamide] |
| > 100 | CC(NC(=O)Cc1ccc(F)cc1)C1CCN(C(=O)[C@H](C)N)CC1 (stereo partly drawn) [compound 206, N-(1-(1-(L-alanyl)piperidin-4-yl)ethyl)-2-(4-fluorophenyl)acetamide] |
| > 100 | N[C@H]1CC[C@H](NC(=O)c2cccnc2O)CC1 [compound 411, N-((1r,4r)-4-aminocyclohexyl)-2-hydroxynicotinamide] |
| 59 | CC(NC(=O)c1ccc2c(c1)CCCC2)C1CCN(C(=O)[C@H](C)N)CC1 (stereo partly drawn) [compound 202, N-(1-(1-(L-alanyl)piperidin-4-yl)ethyl)-5,6,7,8-tetrahydronaphthalene-2-carboxamide] |
| > 100 | NCCC(=O)N[C@H]1CC[C@H](NC(=O)[C@H]2C[C@H](O)CN2)CC1 [compound 434, (2R,4S)-N-((1r,4r)-4-(3-aminopropanamido)cyclohexyl)-4-hydroxypyrrolidine-2-carboxamide] |
| 0.61 | NCCC(=O)N[C@H]1CC[C@H](NC(=O)c2ccc3c(c2)CC(=O)N3)CC1 [compound 471, N-((1r,4r)-4-(3-aminopropanamido)cyclohexyl)-2-oxoindoline-5-carboxamide] |

| IC50 [µM] | Compound |
| --- | --- |
| 35.7 | N[C@H]1CC[C@H](NC(=O)c2cc3cn[nH]c3cn2)CC1 [compound 497, N-((1r,4r)-4-aminocyclohexyl)-1H-pyrazolo[3,4-c]pyridine-5-carboxamide] |
| > 100 | N[C@H]1CC[C@H](NC(=O)Cc2ccc3c(c2)CC(=O)N3)CC1 [compound 448, N-((1r,4r)-4-aminocyclohexyl)-2-(2-oxoindolin-5-yl)acetamide] |
| 10.6 | Cc1cnc(C(=O)NC(C)C2CCN(C(=O)[C@H](C)N)CC2)s1 (stereo partly drawn) [compound 396, N-(1-(1-(L-alanyl)piperidin-4-yl)ethyl)-5-methylthiazole-2-carboxamide] |
| > 100 | CC(NC(=O)c1ccc2ncsc2c1)C1CCN(C(=O)[C@H](C)N)CC1 (stereo partly drawn) [compound 228, N-(1-(1-(L-alanyl)piperidin-4-yl)ethyl)benzo[d]thiazole-6-carboxamide] |
| > 100 | CC(NC(=O)c1ccc(S(N)(=O)=O)cc1)C1CCN(C(=O)[C@H](C)N)CC1 (stereo partly drawn) [compound 323, N-(1-(1-(L-alanyl)piperidin-4-yl)ethyl)-4-sulfamoylbenzamide] |
| > 100 | CC(NC(=O)c1ccc(N)nc1)C1CCN(C(=O)[C@H](C)N)CC1 (stereo partly drawn) [compound 387, N-(1-(1-(L-alanyl)piperidin-4-yl)ethyl)-6-aminonicotinamide] |
| 37.4 | NCCC(=O)N[C@H]1CC[C@H](NC(=O)c2cnccn2)CC1 [compound 252, N-((1r,4r)-4-(3-aminopropanamido)cyclohexyl)pyrazine-2-carboxamide] |
| 85.7 | N[C@H]1CC[C@H](NC(=O)c2noc(C3CC3)n2)CC1 [compound 484, N-((1r,4r)-4-aminocyclohexyl)-5-cyclopropyl-1,2,4-oxadiazole-3-carboxamide] |
| > 100 | Cn1ccnc1C(=O)N[C@H]1CC[C@H](N)CC1 [compound 337, N-((1r,4r)-4-aminocyclohexyl)-1-methyl-1H-imidazole-2-carboxamide] |
| > 100 | N[C@H]1CC[C@H](NC(=O)c2nc3ccccc3[nH]2)CC1 [compound 336, N-((1r,4r)-4-aminocyclohexyl)-1H-benzo[d]imidazole-2-carboxamide] |
| > 100 | CC(NC(=O)[C@H]1CC[C@H](N)CC1)C1CCN(C(=O)[C@H](C)N)CC1 (stereo partly drawn) [compound 262, (1r,4S)-N-(1-(1-(L-alanyl)piperidin-4-yl)ethyl)-4-aminocyclohexane-1-carboxamide] |
| 7.46 | N[C@H]1CC[C@H](NC(=O)c2ccc3c(c2)C(=O)C(=O)N3)CC1 [compound 470, N-((1r,4r)-4-aminocyclohexyl)-2,3-dioxoindoline-5-carboxamide] |
| > 100 | Cc1cc(C(=O)N[C@H]2CC[C@H](NC(=O)CCN)CC2)ccn1 [compound 393, N-((1r,4r)-4-(3-aminopropanamido)cyclohexyl)-2-methylisonicotinamide] |
| > 100 | NCCC(=O)N[C@H]1CC[C@H](NC(=O)c2cc(=O)c3ccccc3o2)CC1 [compound 327, N-((1r,4r)-4-(3-aminopropanamido)cyclohexyl)-4-oxo-4H-chromene-2-carboxamide] |
| 70.7 | CC(NC(=O)Cc1cc(F)cc(F)c1)C1CCN(C(=O)[C@H](C)N)CC1 (stereo partly drawn) [compound 313, N-(1-(1-(L-alanyl)piperidin-4-yl)ethyl)-2-(3,5-difluorophenyl)acetamide] |
| > 100 | COc1cncc(C(=O)N[C@H]2CC[C@H](NC(=O)CCN)CC2)n1 [compound 355, N-((1r,4r)-4-(3-aminopropanamido)cyclohexyl)-6-methoxypyrazine-2-carboxamide] |
| > 100 | COc1cccc(C(=O)NC(C)C2CCN(C(=O)[C@H](C)N)CC2)n1 (stereo partly drawn) [compound 301, N-(1-(1-(L-alanyl)piperidin-4-yl)ethyl)-6-methoxypicolinamide] |

same assay, conditions: read-out: SMYD3 Biochem IC50 (μM)*

| IC50 [µM] | Compound |
| --- | --- |
| 79.2 | N[C@H]1CC[C@H](NC(=O)c2ccc(-c3ccccc3)cc2)CC1 [compound 155, N-((1r,4r)-4-aminocyclohexyl)-[1,1′-biphenyl]-4-carboxamide] |
| 32 | N[C@H]1CC[C@H](NC(=O)c2cc(-n3cnnc3)ccc2Cl)CC1 [compound 126, N-((1r,4r)-4-aminocyclohexyl)-2-chloro-5-(4H-1,2,4-triazol-4-yl)benzamide] |
| > 100 | NCCC(=O)N[C@H]1CC[C@H](NC(=O)c2ccc(S(N)(=O)=O)cc2)CC1 [compound 156, N-((1r,4r)-4-(3-aminopropanamido)cyclohexyl)-4-sulfamoylbenzamide] |
| > 100 | COc1ccc2cc(C(C)C(=O)N[C@H]3CC[C@H](NC(=O)CCN)CC3)ccc2c1 (some centres unmarked) [compound 169, 3-amino-N-((1r,4r)-4-(2-(6-methoxynaphthalen-2-yl)propanamido)cyclohexyl)propanamide] |
| 10.7 | C[C@@H](N)C(=O)N1CC[C@@H](CNC(=O)c2ccc3c(c2)CC(=O)N3)C1 [compound 133, N-(((S)-1-(D-alanyl)pyrrolidin-3-yl)methyl)-2-oxoindoline-5-carboxamide] |
| 77.5 | N[C@H]1CC[C@H](NC(=O)c2ccc3c(c2)NC(=O)CN3)CC1 [compound 70, N-((1r,4r)-4-aminocyclohexyl)-3-oxo-1,2,3,4-tetrahydroquinoxaline-6-carboxamide] |
| 116 | N[C@H]1CC[C@H](NC(=O)c2ccc3ccc(O)nc3c2)CC1 [compound 119, N-((1r,4r)-4-aminocyclohexyl)-2-hydroxyquinoline-7-carboxamide] |
| 150 | CCC1(C(=O)N[C@H]2CC[C@H](N)CC2)CCCN1 (some centres unmarked) [compound 111, N-((1r,4r)-4-aminocyclohexyl)-2-ethylpyrrolidine-2-carboxamide] |
| 12.9 | CN1C(=O)Cc2cc(C(=O)NC3CCN(C(=O)[C@@H](N)Cc4c[nH]c5ccccc45)CC3)ccc21 [compound 83, N-(1-(L-tryptophyl)piperidin-4-yl)-1-methyl-2-oxoindoline-5-carboxamide] |
